Laboratory results reported in PMC12090182, “Repurposing of the RIPK1-Selective Benzo[1,4]oxazepin-4-one Scaffold for the Development of a Type III LIMK1/2 Inhibitor” (ACS Chemical Biology, 2025).

What was measured:
Experiment in all cases: biochemical
Assay type in all cases: binding
[1] = target: 468 kinases including some pathogenic mutants (Homo sapiens, UniProt Q9Y4K4); settings: MAP4K5 (Entrez MAP4K5), 100 nM; read-out: Percent Control
[2] = target: 468 kinases including some pathogenic mutants (Homo sapiens, UniProt P08581, Y1235D); settings: read-out: Percent Control
[3] = target: 468 kinases including some pathogenic mutants (Homo sapiens, UniProt Q59H18); settings: TNNI3K (Entrez TNNI3K), 100 nM; read-out: Percent Control
[4] = target: 468 kinases including some pathogenic mutants (Homo sapiens, UniProt O00506); settings: YSK1 (Entrez STK25), 1000 nM; read-out: Percent Control
[5] = target: 468 kinases including some pathogenic mutants (Homo sapiens, UniProt Q56UN5); settings: YSK4 (Entrez MAP3K19), 1000 nM; read-out: Percent Control
[6] = target: 468 kinases including some pathogenic mutants (Homo sapiens, UniProt Q5VT25); settings: MRCKA (Entrez CDC42BPA), 100 nM; read-out: Percent Control
[7] = target: 468 kinases including some pathogenic mutants (Homo sapiens, UniProt Q8TF76); settings: HASPIN (Entrez GSG2), 100 nM; read-out: Percent Control
[8] = target: 468 kinases including some pathogenic mutants (Homo sapiens, UniProt P35626); settings: GRK3 (Entrez ADRBK2), 100 nM; read-out: Percent Control
[9] = target: 468 kinases including some pathogenic mutants (Homo sapiens, UniProt O95819); settings: MAP4K4 (Entrez MAP4K4), 100 nM; read-out: Percent Control
[10] = target: 468 kinases including some pathogenic mutants (Homo sapiens, UniProt P10721, D816H); settings: read-out: Percent Control
[11] = target: 468 kinases including some pathogenic mutants (Homo sapiens, UniProt Q96NX5); settings: CAMK1G (Entrez CAMK1G), 100 nM; read-out: Percent Control
[12] = target: 468 kinases including some pathogenic mutants (Homo sapiens, UniProt Q6P3R8); settings: NEK5 (Entrez NEK5), 100 nM; read-out: Percent Control
[13] = target: 468 kinases including some pathogenic mutants (Homo sapiens, UniProt Q9UPE1); settings: SRPK3 (Entrez SRPK3), 1000 nM; read-out: Percent Control
[14] = target: 468 kinases including some pathogenic mutants (Homo sapiens, UniProt Q9H2G2); settings: SLK (Entrez SLK), 100 nM; read-out: Percent Control
[15] = target: 468 kinases including some pathogenic mutants (Homo sapiens, UniProt P21860); settings: ERBB3 (Entrez ERBB3), 100 nM; read-out: Percent Control
[16] = target: 468 kinases including some pathogenic mutants (Homo sapiens, UniProt P24941); settings: CDK2 (Entrez CDK2), 100 nM; read-out: Percent Control
[17] = target: 468 kinases including some pathogenic mutants (Homo sapiens, UniProt Q9Y5S2); settings: MRCKB (Entrez CDC42BPB), 1000 nM; read-out: Percent Control
[18] = target: 468 kinases including some pathogenic mutants (Homo sapiens, UniProt Q8N4C8); settings: MINK (Entrez MINK1), 100 nM; read-out: Percent Control
[19] = target: 468 kinases including some pathogenic mutants (Homo sapiens, UniProt P49840); settings: GSK3A (Entrez GSK3A), 100 nM; read-out: Percent Control
[20] = target: 468 kinases including some pathogenic mutants (Homo sapiens, UniProt O00329); settings: PIK3CD (Entrez PIK3CD), 100 nM; read-out: Percent Control
[21] = target: 468 kinases including some pathogenic mutants (Homo sapiens, UniProt Q9UL54); settings: TAOK2 (Entrez TAOK2), 100 nM; read-out: Percent Control
[22] = target: 468 kinases including some pathogenic mutants (Homo sapiens, UniProt O14578); settings: CIT (Entrez CIT), 100 nM; read-out: Percent Control
[23] = target: 468 kinases including some pathogenic mutants (Homo sapiens, UniProt P51812); settings: read-out: Percent Control
[24] = target: 468 kinases including some pathogenic mutants (Homo sapiens, UniProt P42336, M1043I); settings: read-out: Percent Control
[25] = target: 468 kinases including some pathogenic mutants (Homo sapiens, UniProt P42338); settings: PIK3CB (Entrez PIK3CB), 100 nM; read-out: Percent Control
[26] = target: 468 kinases including some pathogenic mutants (Homo sapiens, UniProt P43405); settings: SYK (Entrez SYK), 100 nM; read-out: Percent Control
[27] = target: 468 kinases including some pathogenic mutants (Homo sapiens, UniProt O94806); settings: PRKD3 (Entrez PRKD3), 100 nM; read-out: Percent Control
[28] = target: 468 kinases including some pathogenic mutants (Homo sapiens, UniProt P15056); settings: BRAF (Entrez BRAF), 100 nM; read-out: Percent Control

Chain of 468 kinases including some pathogenic mutants (Homo sapiens, UniProt P51812) (P51812 whole entry, stated change not applied): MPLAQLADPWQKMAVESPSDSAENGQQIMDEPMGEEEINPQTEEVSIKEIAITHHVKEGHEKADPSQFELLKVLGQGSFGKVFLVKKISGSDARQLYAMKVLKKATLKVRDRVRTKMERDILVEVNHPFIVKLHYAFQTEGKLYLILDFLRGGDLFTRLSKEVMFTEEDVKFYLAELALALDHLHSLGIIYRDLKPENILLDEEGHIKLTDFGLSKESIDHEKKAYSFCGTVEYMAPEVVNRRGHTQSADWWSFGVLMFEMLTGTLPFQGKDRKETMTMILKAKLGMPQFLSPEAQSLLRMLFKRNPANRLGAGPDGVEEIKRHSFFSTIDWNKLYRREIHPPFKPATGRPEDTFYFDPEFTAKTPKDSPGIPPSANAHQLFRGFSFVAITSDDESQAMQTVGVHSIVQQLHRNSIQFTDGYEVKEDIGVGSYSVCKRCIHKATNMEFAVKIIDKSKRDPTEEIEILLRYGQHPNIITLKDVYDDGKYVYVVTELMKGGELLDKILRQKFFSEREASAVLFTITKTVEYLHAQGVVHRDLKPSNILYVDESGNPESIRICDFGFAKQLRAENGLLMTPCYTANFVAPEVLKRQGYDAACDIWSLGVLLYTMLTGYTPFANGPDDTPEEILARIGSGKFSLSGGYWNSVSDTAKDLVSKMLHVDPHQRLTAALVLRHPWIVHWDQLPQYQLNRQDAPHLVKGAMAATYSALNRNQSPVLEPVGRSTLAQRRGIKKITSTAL
Chain of 468 kinases including some pathogenic mutants (Homo sapiens, UniProt P42338) (P42338 whole entry, change not shown): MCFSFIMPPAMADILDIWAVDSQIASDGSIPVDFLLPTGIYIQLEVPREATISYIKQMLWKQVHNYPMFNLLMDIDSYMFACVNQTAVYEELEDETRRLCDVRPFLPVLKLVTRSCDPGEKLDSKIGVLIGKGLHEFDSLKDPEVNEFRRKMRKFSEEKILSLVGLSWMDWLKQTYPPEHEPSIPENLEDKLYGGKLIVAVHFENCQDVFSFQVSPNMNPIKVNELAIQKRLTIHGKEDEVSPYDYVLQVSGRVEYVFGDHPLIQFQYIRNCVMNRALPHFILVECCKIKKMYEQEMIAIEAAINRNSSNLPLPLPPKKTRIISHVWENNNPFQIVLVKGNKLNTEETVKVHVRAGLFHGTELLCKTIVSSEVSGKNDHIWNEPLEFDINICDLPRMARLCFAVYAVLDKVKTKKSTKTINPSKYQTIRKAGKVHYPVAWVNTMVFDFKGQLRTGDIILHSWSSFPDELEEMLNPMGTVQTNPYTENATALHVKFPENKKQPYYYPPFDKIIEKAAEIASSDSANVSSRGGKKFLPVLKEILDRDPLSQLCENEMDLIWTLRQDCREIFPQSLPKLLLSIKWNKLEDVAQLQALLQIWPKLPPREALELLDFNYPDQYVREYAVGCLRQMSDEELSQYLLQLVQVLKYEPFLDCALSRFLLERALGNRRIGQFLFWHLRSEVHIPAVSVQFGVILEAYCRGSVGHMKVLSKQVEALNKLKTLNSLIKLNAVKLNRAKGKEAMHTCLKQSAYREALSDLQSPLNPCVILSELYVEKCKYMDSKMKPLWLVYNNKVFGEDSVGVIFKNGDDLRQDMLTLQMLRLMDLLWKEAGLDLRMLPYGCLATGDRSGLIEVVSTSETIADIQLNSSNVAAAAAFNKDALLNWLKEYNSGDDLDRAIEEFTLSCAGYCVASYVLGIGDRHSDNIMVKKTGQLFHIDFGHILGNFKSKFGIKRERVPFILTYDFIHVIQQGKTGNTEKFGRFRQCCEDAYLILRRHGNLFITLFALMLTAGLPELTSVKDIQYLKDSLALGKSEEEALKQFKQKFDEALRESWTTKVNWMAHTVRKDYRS
Chain of 468 kinases including some pathogenic mutants (Homo sapiens, UniProt Q9Y5S2) (Q9Y5S2 whole entry, change not shown): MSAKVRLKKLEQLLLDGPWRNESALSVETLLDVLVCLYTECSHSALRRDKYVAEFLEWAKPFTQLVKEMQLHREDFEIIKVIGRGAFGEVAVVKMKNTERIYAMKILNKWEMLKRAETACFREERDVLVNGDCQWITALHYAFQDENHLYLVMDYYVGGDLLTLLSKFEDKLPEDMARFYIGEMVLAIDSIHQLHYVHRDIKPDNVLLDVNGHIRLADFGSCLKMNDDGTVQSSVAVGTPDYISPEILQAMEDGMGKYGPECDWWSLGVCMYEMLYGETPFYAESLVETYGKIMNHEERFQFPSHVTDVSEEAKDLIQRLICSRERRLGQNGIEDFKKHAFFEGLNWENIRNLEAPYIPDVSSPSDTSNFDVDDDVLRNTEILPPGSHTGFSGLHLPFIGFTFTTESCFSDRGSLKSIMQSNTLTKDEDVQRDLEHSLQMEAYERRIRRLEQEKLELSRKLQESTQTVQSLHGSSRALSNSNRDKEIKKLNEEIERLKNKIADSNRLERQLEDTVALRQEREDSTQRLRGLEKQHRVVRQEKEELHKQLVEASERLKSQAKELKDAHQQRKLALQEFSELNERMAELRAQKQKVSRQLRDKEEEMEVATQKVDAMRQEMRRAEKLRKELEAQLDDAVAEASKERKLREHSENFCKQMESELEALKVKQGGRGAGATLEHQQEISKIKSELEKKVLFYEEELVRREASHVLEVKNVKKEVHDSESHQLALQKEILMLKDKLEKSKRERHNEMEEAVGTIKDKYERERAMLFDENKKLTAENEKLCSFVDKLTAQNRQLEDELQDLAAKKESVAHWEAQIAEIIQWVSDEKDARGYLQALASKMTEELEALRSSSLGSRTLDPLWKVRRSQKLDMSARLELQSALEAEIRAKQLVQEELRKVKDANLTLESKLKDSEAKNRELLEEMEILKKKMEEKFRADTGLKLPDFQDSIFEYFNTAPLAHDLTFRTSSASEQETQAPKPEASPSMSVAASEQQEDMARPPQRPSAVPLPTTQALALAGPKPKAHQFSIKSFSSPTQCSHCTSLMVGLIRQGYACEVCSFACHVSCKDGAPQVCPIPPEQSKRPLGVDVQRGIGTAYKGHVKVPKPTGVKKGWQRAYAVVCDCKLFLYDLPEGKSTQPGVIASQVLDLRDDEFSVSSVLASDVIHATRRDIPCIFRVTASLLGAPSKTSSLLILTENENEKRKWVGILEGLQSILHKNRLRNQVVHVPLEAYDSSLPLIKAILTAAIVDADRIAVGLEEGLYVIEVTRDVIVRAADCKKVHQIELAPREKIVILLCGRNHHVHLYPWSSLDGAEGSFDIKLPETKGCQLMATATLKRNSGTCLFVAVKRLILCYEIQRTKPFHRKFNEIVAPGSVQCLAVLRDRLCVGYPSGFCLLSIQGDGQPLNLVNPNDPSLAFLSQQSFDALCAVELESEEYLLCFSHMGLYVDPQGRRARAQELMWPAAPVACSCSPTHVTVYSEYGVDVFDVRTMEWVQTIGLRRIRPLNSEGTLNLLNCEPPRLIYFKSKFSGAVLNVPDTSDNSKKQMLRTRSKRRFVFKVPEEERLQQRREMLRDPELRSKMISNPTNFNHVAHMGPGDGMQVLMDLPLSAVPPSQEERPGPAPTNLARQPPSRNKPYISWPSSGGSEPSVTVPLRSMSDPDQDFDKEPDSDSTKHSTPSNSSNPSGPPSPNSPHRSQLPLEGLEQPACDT
Chain of 468 kinases including some pathogenic mutants (Homo sapiens, UniProt Q8N4C8) (Q8N4C8 whole entry, change not shown): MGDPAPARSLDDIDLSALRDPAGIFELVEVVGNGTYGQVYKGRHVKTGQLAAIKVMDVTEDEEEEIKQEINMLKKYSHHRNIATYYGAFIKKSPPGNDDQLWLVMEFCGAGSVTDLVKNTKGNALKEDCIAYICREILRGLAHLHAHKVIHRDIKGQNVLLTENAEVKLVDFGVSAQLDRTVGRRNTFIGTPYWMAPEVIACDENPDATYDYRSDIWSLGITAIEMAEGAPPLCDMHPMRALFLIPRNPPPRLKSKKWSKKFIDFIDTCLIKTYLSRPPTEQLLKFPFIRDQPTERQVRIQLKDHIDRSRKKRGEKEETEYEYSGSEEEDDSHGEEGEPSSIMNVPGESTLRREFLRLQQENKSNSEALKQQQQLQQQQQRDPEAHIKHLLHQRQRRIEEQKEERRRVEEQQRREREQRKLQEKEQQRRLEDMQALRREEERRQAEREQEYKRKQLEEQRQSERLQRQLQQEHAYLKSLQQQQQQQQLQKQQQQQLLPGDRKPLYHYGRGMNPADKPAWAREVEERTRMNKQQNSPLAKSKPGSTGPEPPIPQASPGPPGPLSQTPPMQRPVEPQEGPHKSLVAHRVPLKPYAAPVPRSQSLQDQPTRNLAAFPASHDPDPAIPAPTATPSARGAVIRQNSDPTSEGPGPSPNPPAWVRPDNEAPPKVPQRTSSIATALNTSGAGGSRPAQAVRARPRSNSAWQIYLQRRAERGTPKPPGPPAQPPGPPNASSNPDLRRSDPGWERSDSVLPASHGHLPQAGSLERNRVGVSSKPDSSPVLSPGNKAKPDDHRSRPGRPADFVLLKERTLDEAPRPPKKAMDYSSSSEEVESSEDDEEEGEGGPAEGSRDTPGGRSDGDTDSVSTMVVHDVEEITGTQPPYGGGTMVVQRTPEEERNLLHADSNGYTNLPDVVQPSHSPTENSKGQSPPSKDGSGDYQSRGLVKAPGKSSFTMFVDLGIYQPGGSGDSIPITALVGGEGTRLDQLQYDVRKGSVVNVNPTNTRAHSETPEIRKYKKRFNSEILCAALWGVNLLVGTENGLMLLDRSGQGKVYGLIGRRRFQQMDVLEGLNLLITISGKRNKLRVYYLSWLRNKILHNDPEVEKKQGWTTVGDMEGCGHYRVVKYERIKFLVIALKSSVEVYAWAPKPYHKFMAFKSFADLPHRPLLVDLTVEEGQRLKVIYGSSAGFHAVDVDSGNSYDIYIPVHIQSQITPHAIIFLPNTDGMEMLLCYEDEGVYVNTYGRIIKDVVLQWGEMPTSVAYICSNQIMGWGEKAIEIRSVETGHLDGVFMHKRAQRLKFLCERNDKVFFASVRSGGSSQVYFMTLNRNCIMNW

CN1C(=O)[C@@H](N2CCc3c(nn(Cc4ccccc4)c3C(N)=O)C2=O)COc2cc(Cl)ccc21 [Compound 10, (S)-2-benzyl-6-(8-chloro-5-methyl-4-oxo-2,3,4,5-tetrahydrobenzo[b][1,4]oxazepin-3-yl)-7-oxo-4,5,6,7-tetrahydro-2H-pyrazolo[3,4-c]pyridine-3-carboxamide]
remaining activity at 0.1 µM [1]: 100% | remaining activity at 0.1 µM [2]: 87% | remaining activity at 0.1 µM [3]: 82% | remaining activity at 1 µM [4]: 100% | remaining activity at 1 µM [5]: 100% | remaining activity at 0.1 µM [6]: 73% | remaining activity at 0.1 µM [7]: 89% | remaining activity at 0.1 µM [8]: 98% | remaining activity at 0.1 µM [9]: 99% | remaining activity at 0.1 µM [10]: 100% | remaining activity at 0.1 µM [11]: 72% | remaining activity at 0.1 µM [12]: 87% | remaining activity at 1 µM [13]: 100% | remaining activity at 0.1 µM [14]: 89% | remaining activity at 0.1 µM [15]: 84% | remaining activity at 0.1 µM [16]: 83% | remaining activity at 1 µM [17]: 100% | remaining activity at 0.1 µM [18]: 94% | remaining activity at 0.1 µM [19]: 100% | remaining activity at 0.1 µM [20]: 60% | remaining activity at 0.1 µM [21]: 100% | remaining activity at 0.1 µM [22]: 95% | remaining activity at 1 µM ([23]; RSK2(Kin.Dom.1-N-terminal) (Entrez RPS6KA3), 1000 nM): 100% | remaining activity at 0.1 µM ([23]; RSK2(Kin.Dom.2-C-terminal) (Entrez RPS6KA3), 100 nM): 74% | remaining activity at 0.1 µM [24]: 78% | remaining activity at 0.1 µM [25]: 100% | remaining activity at 0.1 µM [26]: 100% | remaining activity at 0.1 µM [27]: 76% | remaining activity at 0.1 µM [28]: 58%
